Where two headings read alike, the source gives them in different places.

Data set [1] concerns enzymes from salmon intestinal fluid. The experiment in a line: Hydrolysis of astaxanthin diesters with enzymes from salmon intestinal fluid (Example 2). The following applies: after 45 hours at room temperature. The format is in vitro ADME, Atlantic salmon. On the procedure:
To verify the hydrolysis data for these astaxanthin diesters obtained by using the commercial lipase, another similar experiment was performed by using enzyme isolated from the intestine of Atlantic salmon.
A similar experiment as Example 1 was performed with enzymes from salmon intestinal fluid. The intestinal fluid from salmon was collected as described from cod (Lie, Ø. et al., Comp. Biochem. Physiol., 80B (3), (1985), pp. 447-450). The following results were obtained after 45 hours at room temperature: […]

For data set [2] the following is noted: cited from earlier work.
Data set [3] relates to crude enzyme mixture from salmon intestine. In words: Hydrolysis with crude enzyme mixture from salmon intestine (Example 4). The following applies: after 48 hours hydrolysis; for Diol (%): diol = free astaxanthin. The format is in vitro ADME. The protocol:
(§1) Tris buffer (0.25 M) solution was prepared by dissolving Tris (4.54 g; 37.5 mmol) in 150 ml of distilled water. The pH of the buffer solution was adjusted to 8.0 by adding 2 M hydrochloric acid. All the hydrolysis was done at room temperature so no special effort was necessary.
(§2) The astaxanthin diester was weighed accurately (˜40 mg, […]) along with 2.5 g of chremophor EL emulsifier (from BASF) into 100 ml Erlenmeyer flask. The solution was stirred vigorously for 20 minutes (until homogeneous) and then 20 ml of the Tris buffer was added and stirred for additional 10 minutes. The solution was suction filtered and the red filtrate was poured into 25 ml volumetric flask and diluted to the mark with buffer. Concentration of all the solution was determined spectrophotometically (492 nm) to be about 1 mg/ml, except for diacetate which was obtained in a lower concentration. All the solutions were stored in refrigerator wrapped in aluminium paper.
(§3) Fresh salmon and rainbow trout, that had been fed in the last 12 hours, were obtained from local fish farms. At the laboratory the fresh fish was cut open and the crude enzyme mixture extracted as follows: From the digestion line there were a lot of narrow tubes surrounded by fat tissue. Each of them was cut off and extracted by hand into a cooled container. The viscous solution (−50 ml) was diluted to 100 ml with 0.25 M Tris buffer and stirred for 30 minutes in an ice bath. Next step was centrifugation at 11.000 rpm for 20 minutes at 4° C. (RC5C from Du Pont). The water layer was extracted by pipette to another centrifuge glasses and the centrifugation repeated at 18.000 rpm for 30 minutes at 4° C. The water layer was transferred to Erlenmeyer flask and quickly frozen by liquid nitrogen. Before starting the reaction the mixture was thawed and purified by ultracentrifuge at 27.000 rpm for 45 minutes at 4° C. (157.000 g at top). The lipase preparation was obtained as a clear yellow solution.
(§4) Into a 10 ml round bottom flask was added 2 ml of stock solution and 3 ml of crude enzyme mixture from fish intestine. The flask was filled with nitrogen before closing, wrapped in aluminium paper and stirred for 48 hours. When finished, all the water was removed under reduced pressure (0.01 Torr) and redissolved in CH2Cl2. The solution was filtered through cotton wool plug and stored under nitrogen in a closed container. Analytical TLC was used to monitor the progress of the reaction with 5% acetone in CH2Cl2 as eluent (Diol(Rf=0.0-0.1), Monoest. (Rf=0.3-0.5), Diest. (Rf=0.8-0.9)). To determine the degree of hydrolysis all the samples were injected into analytical HPLC. [Eluent: 30% acetone in n-hexane. Column: Nucleosil 50-5 (2×30 cm) column. Flow rate: 0.15 ml/min. Detector: 470 nm (Diol Rf=0.4-0.5, Monoest. Rf=0.7, Diest. Rf=0.9-1.0)].
A similar experiment as in Example 2 was performed with enzymes from salmon intestinal fluid.
The diesters that were hydrolysed were prepared by esterification of astaxanthin with the following carboxylic acids:
Acetic acid, C16:0 (palmitic acid), fatty acids from a fish oil rich in omega-3 fatty acids (approx. 18% EPA and 12% DHA, called K30 in the tables below), a concentrate of omega-3 fatty acids (approx. 30% EPA and 20% DHA, called K55 in the tables below), the same concentrate of EPA and DHA as used in example 2 (approx. 50% EPA and 35% DHA, called ACD in the tables below), purified EPA (more than 95% EPA, called EPA in the tables) and purified DHA (more than 90% DHA, called DHA in the tables).

For data set [4], the system named is commercial lipase, Candida rugosa (Lipase AY, 30). The experiment in a line: Hydrolysis of astaxanthin diesters by commercial lipase. On the procedure:
We synthesised several other diesters in order to study whether these hydrolysed faster than the dipalmitate.
Diesters of astaxanthin were prepared with the following carboxylic acids: elaidic acid (trans-C18:1), palmitic acid (C16:0), decanoic acid (C10:0) and a concentrate of omega-3 fatty acids comprising approximately 50% eicosapentaenoic acid (EPA) (all cis C20:5 n3) and approximately 35% docosahexaenoic acid (DHA) (all cis C22:6 n3). The different diesters were firstly hydrolysed by a commercial lipase, Candida rugosa (Lipase AY, 30).

Data set [5] concerns crude enzyme mixture from rainbow trout intestine. In words: Hydrolysis with crude enzyme mixture from rainbow trout intestine (Example 5). The format is in vitro ADME, rainbow trout (Oncorhynchus mykiss). Particulars: after 48 hours hydrolysis; for Diol (%): diol = free astaxanthin. On the procedure:
as §1, §2, §3, §4
A similar example as Example 2b was performed. However, for this Example crude enzyme preparation from rainbow trout (Oncorhynchus mykiss) was used. […] For the fish oil 37% was unreacted, while for ACD only 14% remained unreacted. As for salmon, we observe that EPA reacts faster than DHA (17 and 21% unreacted), however for rainbow trout we observe that an omega-3 concentrate like the ACD diester gives higher degree of hydrolysis than the diester of purified EPA.

As to `CCCCCCCCCC(=O)O[C@H]1CC(C)(C)C(/C=C/C(C)=C/C=C/C(C)=C/C=C/C=C(C)/C=C/C=C(C)/C=C/C2=C(C)C(=O)[C@@H](OC(=O)CCCCCCCCC)CC2(C)C)=C(C)C1=O` [10:0], the “Free astaxanthin (%)” value in data set [1] is given as 6%; in data set [1] (listed as C10:0), “hydrolysed much faster than the dipalmitate”; in data set [1] (listed as didecanoate) it was 6%.
As for `CCCCCCCCCCCCCCCC(=O)O[C@H]1CC(C)(C)C(/C=C/C(C)=C/C=C/C(C)=C/C=C/C=C(C)/C=C/C=C(C)/C=C/C2=C(C)C(=O)[C@@H](OC(=O)CCCCCCCCCCCCCCC)CC2(C)C)=C(C)C1=O` [16:0, astaxanthin dipalmitate, reference compound], the “pigmentation compared with the diol” value in data set [2] (literature) is recorded as “less pigmentation than the diol”. In addition, the “absorption compared with free astaxanthin” value in data set [2] (rainbow trout, sea trout and Atlantic salmon) is “absorbed less easy than free astaxanthin”. The entries for the “Diesters (%)” value in data set [3] and in data set [5] were 81% and 71%, respectively. The “Monoesters (%)” value was determined as 19% in data set [3] and 18% in data set [5]. Also, the “Diol (%)” value in data set [3] is 0%; in data set [3] (listed as diester of astaxanthin with palmitic acid (16:0)) it was “no free astaxanthin”; in data set [5], 11%. Also, the results for the “Free astaxanthin (%)” value in data set [1] and in data set [4] were 1% and 40%, respectively.
`CCCCCCCCC=CCCCCCCCC(=O)OC1CC(C)(C)C(C=CC(C)=CC=CC(C)=CC=CC=C(C)C=CC=C(C)C=CC2=C(C)C(=O)C(OC(=O)CCCCCCCC=CCCCCCCCC)CC2(C)C)=C(C)C1=O` (stereo not shown) [18:1]: the “Free astaxanthin (%)” value in data set [1] is 1%; in data set [4] (after 42 hours at room temperature, commercial lipase Candida rugosa), 73%.
For `CC(=O)O` [Acetate], in data set [3], the “Diesters (%)” value turned out to be 13%, the “Monoesters (%)” value stood at 80% and the “Diol (%)” value stood at 7%. In data set [5], the “Diesters (%)” value is recorded as 3%, the “Monoesters (%)” value is given as 83% and the “Diol (%)” value is 14%.
Consider `CC/C=C\C/C=C\C/C=C\C/C=C\C/C=C\C/C=C\CCC(=O)O[C@H]1CC(C)(C)C(/C=C/C(C)=C/C=C/C(C)=C/C=C/C=C(C)/C=C/C=C(C)/C=C/C2=C(C)C(=O)[C@@H](OC(=O)CC/C=C\C/C=C\C/C=C\C/C=C\C/C=C\C/C=C\CC)CC2(C)C)=C(C)C1=O` [DHA], for which, in data set [3], the “Diesters (%)” value is recorded as 44%, the “Monoesters (%)” value is 53% and the “Diol (%)” value came out at 3%. Besides, in data set [5], the “Diesters (%)” value is recorded as 21%, the “Monoesters (%)” value is listed as 55% and the “Diol (%)” value stood at 24%.
Regarding `CC/C=C\C/C=C\C/C=C\C/C=C\C/C=C\CCCC(=O)O[C@H]1CC(C)(C)C(/C=C/C(C)=C/C=C/C(C)=C/C=C/C=C(C)/C=C/C=C(C)/C=C/C2=C(C)C(=O)[C@@H](OC(=O)CCC/C=C\C/C=C\C/C=C\C/C=C\C/C=C\CC)CC2(C)C)=C(C)C1=O` [EPA], in data set [3], the “Diesters (%)” value is 27%, the “Monoesters (%)” value was found to be 67% and the “Diol (%)” value amounted to 6%. Further, in data set [5], the “Diesters (%)” value amounted to 17%, the “Monoesters (%)” value stood at 58% and the “Diol (%)” value was found to be 25%.

The values above are taken from US6709688B1, “Pigment” (Norsk Hydro ASA, priority 1999, dated 2004).
